What was measured:
JAK2 = molecular target: T1, JAK2 (Homo sapiens, UniProt O60674); assay: kinobeads assay (competition with affinity matrix in mixed Molt4/Ramos cell lysate, dot blot detection), JAK2; format: binding; settings: activity level
T1 construct: endogenous in cells; host or cells: Mixed Molt4 / Ramos cell lysate (1:2)
Procedure: (§1) The compounds of the present invention as described in the previous examples were tested in a kinobeads assay as described for ZAP-70 (WO-A 2007/137867). Briefly, test compounds (at various concentrations) and the affinity matrix with the immobilized aminopyrido-pyrimidine ligand 24 were added to cell lysate aliquots and allowed to bind to the proteins in the lysate sample. After the incubation time the beads with captured proteins were separated from the lysate. Bound proteins were then eluted and the presence of, JAK2 and JAK3 was detected and quantified using specific antibodies in a dot blot procedure and the Odyssey infrared detection system. Dose response curves for individual kinases were generated and IC50 values calculated. Kinobeads assays for ZAP-70 (WO-A 2007/137867) and for kinase selectivity profiling (WO-A 2006/134056) have been previously described.
(§2) 5× DP buffer: 250 mM Tris-HCl pH 7.4, 25% Glycerol, 7.5 mM MgCl2, 750 mM NaCl, 5 mM Na3VO4; filter the 5× DP buffer through a 0.22 μm filter and store in aliquots at −80° C. The 5× DP buffer is diluted with H2O to 1× DP buffer containing 1 mM DTT and 25 mM NaF.
(§3) Stock solutions of test compounds were prepared in DMSO. In a 96 well plate 30 μl solution of diluted test compounds at 5 mM in DMSO were prepared. Starting with this solution a 1:3 dilution series (9 steps) was prepared. For control experiments (no test compound) a buffer containing 2% DMSO was used.
(§4) Molt4 cells (ATCC catalogue number CRL-1582) and Ramos cells (ATCC catalogue number CRL-1596) were grown in 1 litre Spinner flasks (Integra Biosciences, #182101) in suspension in RPMI 1640 medium (Invitrogen, #21875-034) supplemented with 10% Fetal Bovine Serum (Invitrogen) at a density between 0.15×10^6 and 1.2×10^6 cells/ml. Cells were harvested by centrifugation, washed once with 1× PBS buffer (Invitrogen, #14190-094) and cell pellets were frozen in liquid nitrogen and subsequently stored at −80° C. Cells were homogenized in a Potter S homogenizer in lysis buffer: 50 mM Tris-HCl, 0.8% NP40, 5% glycerol, 150 mM NaCl, 1.5 mM MgCl2, 25 mM NaF, 1 mM sodium vanadate, 1 mM DTT, pH 7.5. One complete EDTA-free tablet (protease inhibitor cocktail, Roche Diagnostics, 1873580) per 25 ml buffer was added. The material was dounced 10 times using a mechanized POTTER S, transferred to 50 ml falcon tubes, incubated for 30 minutes on ice and spun down for 10 min at 20,000 g at 4° C. (10,000 rpm in Sorvall SLA600, precooled). The supernatant was transferred to an ultracentrifuge (UZ)-polycarbonate tube (Beckmann, 355654) and spun for 1 hour at 100.000 g at 4° C. (33.500 rpm in Ti50.2, precooled). The supernatant was transferred again to a fresh 50 ml falcon tube, the protein concentration was determined by a Bradford assay (BioRad) and samples containing 50 mg of protein per aliquot were prepared. The samples were immediately used for experiments or frozen in liquid nitrogen and stored frozen at −80° C.
(§5) Cell lysate (approximately 50 mg protein per plate) was thawed in a water bath at room temperature and then kept on ice. To the thawed cell lysate 1× DP 0.8% NP40 buffer containing protease inhibitors (1 tablet for 25 ml buffer; EDTA-free protease inhibitor cocktail; Roche Diagnostics 1873580) was added in order to reach a final protein concentration of 5 mg/ml total protein. The diluted cell lysate was stored on ice. Mixed Molt4/Ramos lysate was prepared by combining one volume of Molt4 lysate and two volumes of Ramos lysate (ratio 1:2).
(§6) To a 96 well filter plate (Multiscreen HTS, BV Filter Plates, Millipore #MSBVN1250) were added per well: 100 μl affinity matrix (3% beads slurry), 3 μl of compound solution, and 50 μl of diluted lysate. Plates were sealed and incubated for three hours in a cold room on a plate shaker (Heidolph tiramax 1000) at 750 rpm. Afterwards the plate was washed twice with 230 μl washing buffer (1× DP 0.4% NP40). […]

JAK3 = molecular target: T2, JAK3 (Homo sapiens, UniProt P52333); assay: kinobeads assay (competition with affinity matrix in mixed Molt4/Ramos cell lysate, dot blot detection), JAK3; format: binding; settings: activity level
T2 construct: endogenous in cells; host or cells: Mixed Molt4 / Ramos cell lysate (1:2)
T2 sequence (P52333 1-1124): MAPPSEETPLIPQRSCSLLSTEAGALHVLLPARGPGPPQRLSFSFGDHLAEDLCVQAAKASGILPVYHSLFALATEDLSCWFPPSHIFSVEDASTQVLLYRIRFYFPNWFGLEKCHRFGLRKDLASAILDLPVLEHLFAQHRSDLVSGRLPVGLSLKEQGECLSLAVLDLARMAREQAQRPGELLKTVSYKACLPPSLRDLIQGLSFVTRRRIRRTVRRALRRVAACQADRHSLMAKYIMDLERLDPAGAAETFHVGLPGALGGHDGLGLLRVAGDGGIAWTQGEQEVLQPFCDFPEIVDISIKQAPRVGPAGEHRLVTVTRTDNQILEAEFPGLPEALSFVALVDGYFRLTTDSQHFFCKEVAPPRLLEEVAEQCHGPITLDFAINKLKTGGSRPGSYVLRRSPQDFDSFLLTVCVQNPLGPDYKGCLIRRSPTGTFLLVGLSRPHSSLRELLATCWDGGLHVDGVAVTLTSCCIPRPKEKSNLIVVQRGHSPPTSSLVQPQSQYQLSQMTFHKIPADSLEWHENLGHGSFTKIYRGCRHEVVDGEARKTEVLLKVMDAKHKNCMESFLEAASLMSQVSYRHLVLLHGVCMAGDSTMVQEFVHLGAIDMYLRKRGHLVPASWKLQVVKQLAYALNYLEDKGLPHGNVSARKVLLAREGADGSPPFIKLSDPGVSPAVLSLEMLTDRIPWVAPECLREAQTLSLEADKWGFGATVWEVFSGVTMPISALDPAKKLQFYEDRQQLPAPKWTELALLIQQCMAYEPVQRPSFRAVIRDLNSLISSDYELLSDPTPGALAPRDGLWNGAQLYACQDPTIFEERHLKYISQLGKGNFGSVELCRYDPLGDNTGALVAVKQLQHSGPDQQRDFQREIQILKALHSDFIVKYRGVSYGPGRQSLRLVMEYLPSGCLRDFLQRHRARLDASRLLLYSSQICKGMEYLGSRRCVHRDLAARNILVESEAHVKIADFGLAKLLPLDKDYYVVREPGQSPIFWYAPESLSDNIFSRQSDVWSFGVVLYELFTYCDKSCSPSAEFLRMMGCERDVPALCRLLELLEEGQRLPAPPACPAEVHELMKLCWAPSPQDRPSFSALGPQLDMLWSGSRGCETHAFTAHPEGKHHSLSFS
Procedure: as §1, §2, §3, §4, §5, §6

T1 sequence (O60674 whole entry): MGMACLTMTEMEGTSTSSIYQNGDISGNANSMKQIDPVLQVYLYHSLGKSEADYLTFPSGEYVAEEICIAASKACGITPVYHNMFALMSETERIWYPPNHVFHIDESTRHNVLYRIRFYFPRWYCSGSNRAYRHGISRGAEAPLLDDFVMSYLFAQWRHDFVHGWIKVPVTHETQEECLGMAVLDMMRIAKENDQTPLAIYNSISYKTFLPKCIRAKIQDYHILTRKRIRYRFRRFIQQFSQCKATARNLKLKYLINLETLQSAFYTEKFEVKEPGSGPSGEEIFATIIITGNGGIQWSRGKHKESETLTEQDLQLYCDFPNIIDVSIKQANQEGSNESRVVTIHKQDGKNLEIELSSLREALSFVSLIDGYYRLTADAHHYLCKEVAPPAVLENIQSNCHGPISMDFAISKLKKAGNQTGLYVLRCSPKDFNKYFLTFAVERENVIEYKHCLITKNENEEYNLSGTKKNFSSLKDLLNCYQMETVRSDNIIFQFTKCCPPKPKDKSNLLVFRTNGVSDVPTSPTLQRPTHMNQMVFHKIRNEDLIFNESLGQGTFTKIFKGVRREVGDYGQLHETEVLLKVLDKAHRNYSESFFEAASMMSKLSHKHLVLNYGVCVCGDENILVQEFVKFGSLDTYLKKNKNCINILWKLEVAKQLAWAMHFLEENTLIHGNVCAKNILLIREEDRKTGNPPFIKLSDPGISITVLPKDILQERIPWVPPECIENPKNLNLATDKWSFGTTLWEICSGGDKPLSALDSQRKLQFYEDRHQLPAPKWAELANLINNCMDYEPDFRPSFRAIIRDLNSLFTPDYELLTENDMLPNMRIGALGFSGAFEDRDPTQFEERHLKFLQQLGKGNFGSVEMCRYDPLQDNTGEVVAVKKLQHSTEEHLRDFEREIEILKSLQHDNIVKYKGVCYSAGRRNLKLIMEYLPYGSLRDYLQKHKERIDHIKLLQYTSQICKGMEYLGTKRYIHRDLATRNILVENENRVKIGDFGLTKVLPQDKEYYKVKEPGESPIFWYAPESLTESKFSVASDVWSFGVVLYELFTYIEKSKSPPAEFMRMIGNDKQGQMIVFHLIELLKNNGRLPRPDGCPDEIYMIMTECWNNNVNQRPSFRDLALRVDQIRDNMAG

| IC50 (JAK2) | IC50 (JAK3) | SMILES |
| --- | --- | --- |
| 1000 to 10000 nM | < 100 nM | COc1ccc(Nc2nc(Nc3cc(-n4cnnn4)ccc3F)ncc2F)c(NS(C)(=O)=O)c1 [Example 5, N-(2-(5-fluoro-2-(2-fluoro-5-(1H-tetrazol-1-yl)phenylamino)pyrimidin-4-ylamino)-5-methoxyphenyl)methanesulfonamide] |
| 1000 to 10000 nM | 100 to 1000 nM | CS(=O)(=O)Nc1c(F)cc(F)cc1Nc1nc(Nc2cc(C(=O)NC3CC3)ccc2F)ncc1Cl [Example 62, 3-((5-chloro-4-((3,5-difluoro-2-(methylsulfonamido)phenyl)amino)pyrimidin-2-yl)amino)-N-cyclopropyl-4-fluorobenzamide] |
| 1000 to 10000 nM | < 100 nM | CS(=O)(=O)Nc1ccccc1Nc1nc(Nc2cc(C(=O)NCCO)ccc2F)ncc1Cl [Example 22, 3-(5-chloro-4-(2-(methylsulfonamido)phenylamino)pyrimidin-2-ylamino)-4-fluoro-N-(2-hydroxyethyl)benzamide] |
| > 10000 nM | < 100 nM | CS(=O)(=O)Nc1ccccc1Nc1nc(Nc2cc(F)c(C(=O)NC3CC3)cc2F)ncc1Cl [Example 57, 4-((5-chloro-4-((2-(methylsulfonamido)phenyl)amino)pyrimidin-2-yl)amino)-N-cyclopropyl-2,5-difluorobenzamide] |
| 100 to 1000 nM | < 100 nM | CS(=O)(=O)Nc1ccccc1Nc1nc(Nc2cc(-n3cnnn3)ccc2F)ncc1Br [Example 12, N-(2-(5-bromo-2-(2-fluoro-5-(1H-tetrazol-1-yl)phenylamino)pyrimidin-4-ylamino)phenyl)methanesulfonamide] |
| 100 to 1000 nM | < 100 nM | Cc1cccc(Nc2nc(Nc3cc(-n4cnnn4)ccc3F)ncc2Cl)c1NS(C)(=O)=O [Example 9, N-(2-(5-chloro-2-(2-fluoro-5-(1H-tetrazol-1-yl)phenylamino)pyrimidin-4-ylamino)-6-methylphenyl)methanesulfonamide] |
| 1000 to 10000 nM | < 100 nM | CS(=O)(=O)Nc1ccccc1Nc1nc(Nc2cc(-n3cnnn3)ccc2F)ncc1F [Example 1, N-(2-(5-fluoro-2-(2-fluoro-5-(1H-tetrazol-1-yl)phenylamino)pyrimidin-4-ylamino)phenyl)methanesulfonamide] |
| > 10000 nM | 100 to 1000 nM | CCS(=O)(=O)Nc1ccccc1Nc1nc(Nc2cc(C(=O)N3CCCC3)ccc2F)ncc1Cl [Example 41, N-(2-(5-chloro-2-(2-fluoro-5-(pyrrolidine-1-carbonyl)phenylamino)pyrimidin-4-ylamino)phenyl)ethanesulfonamide] |
| > 10000 nM | < 100 nM | CCN(CC)C(=O)c1ccc(F)c(Nc2ncc(Cl)c(Nc3ccccc3NS(=O)(=O)CC)n2)c1 [Example 40, 3-(5-chloro-4-(2-(ethylsulfonamido)phenylamino)pyrimidin-2-ylamino)-N,N-diethyl-4-fluorobenzamide] |
| > 10000 nM | < 100 nM | CS(=O)(=O)Nc1ccccc1Nc1nc(Nc2cc(C(N)=O)ccc2F)ncc1Cl [Example 18, 3-(5-chloro-4-(2-(methylsulfonamido)phenylamino)pyrimidin-2-ylamino)-4-fluorobenzamide] |
| 1000 to 10000 nM | < 100 nM | CS(=O)(=O)Nc1ccccc1Nc1nc(Nc2cc(C(=O)N3CCCCC3)ccc2F)ncc1Cl [Example 17, N-(2-(5-chloro-2-(2-fluoro-5-(piperidine-1-carbonyl)phenylamino)pyrimidin-4-ylamino)phenyl)methanesulfonamide] |
| > 10000 nM | 100 to 1000 nM | CCS(=O)(=O)Nc1ccccc1Nc1nc(Nc2cc(C#N)ccc2F)ncc1Cl [Example 43, N-(2-(5-chloro-2-(5-cyano-2-fluorophenylamino)pyrimidin-4-ylamino)phenyl)ethanesulfonamide] |
| – | < 100 nM | CC(C)NC(=O)c1ccc(F)c(Nc2ncc(Cl)c(Nc3ccccc3NS(C)(=O)=O)n2)c1 [Example 16] |
| > 10000 nM | 100 to 1000 nM | CS(=O)(=O)Nc1ccccc1Nc1nc(Nc2cc(C(=O)NC3CC3)ccc2F)ncc1F [Example 32, 3-(5-fluoro-4-(2-(methylsulfonamido)phenylamino)pyrimidin-2-ylamino)-N-cyclopropyl-4-fluorobenzamide] |
| > 10000 nM | 100 to 1000 nM | CC(C)NC(=O)c1ccc(F)c(Nc2ncc(F)c(Nc3ccccc3NS(C)(=O)=O)n2)c1 [Example 31] |
| > 10000 nM | 100 to 1000 nM | CCNC(=O)c1ccc(F)c(Nc2ncc(Cl)c(Nc3ccccc3NS(=O)(=O)CC(F)(F)F)n2)c1 [Example 44, 3-(5-chloro-4-(2-(2,2,2-trifluoroethylsulfonamido)phenylamino)pyrimidin-2-ylamino)-N-ethyl-4-fluorobenzamide] |
| > 10000 nM | < 100 nM | CS(=O)(=O)Nc1c(F)cccc1Nc1nc(Nc2cc(-n3cnnn3)ccc2F)ncc1F [Example 3, N-(2-fluoro-6-(5-fluoro-2-(2-fluoro-5-(1H-tetrazol-1-yl)phenylamino)pyrimidin-4-ylamino)phenyl)methanesulfonamide] |
| – | < 100 nM | CS(=O)(=O)Nc1ccccc1Nc1nc(Nc2cc(C(=O)N3CCC3)ccc2F)ncc1Cl [Example 20, N-(2-(2-(5-(azetidine-1-carbonyl-2-fluorophenylamino))-5-chloropyrimidin-4-ylamino)phenyl)methanesulfonamide] |
| – | < 100 nM | CS(=O)(=O)Nc1ccccc1Nc1nc(Nc2cc(C(=O)NC3CC3)ccc2F)ncc1Cl [Example 15] |
| – | 100 to 1000 nM | CCN(CC)C(=O)c1ccc(F)c(Nc2ncc(Cl)c(Nc3ccccc3NS(C)(=O)=O)n2)c1 [Example 19, 3-(5-chloro-4-(2-(methylsulfonamido)phenylamino)pyrimidin-2-ylamino)-N,N-diethyl-4-fluorobenzamide] |

Reference: US20120040955A1 (priority 2009, published 2012)
